Assay results: PMC8391127, “Triterpenoid–PEG Ribbons Targeting Selectivity in Pharmacological Effects” (Biomedicines, 2021)
Like-named read-outs stand apart in the source and are kept apart here. Marks after values point to notes of the source that are not given here.

Assays:
Bacillus cereus = experiment: Antimicrobial screening, resazurine test; type: cell-based; details: Bacillus cereus, B. cereus, read-out: Inhibition of the microorganism; for inhibition at 25 µg/mL: c = 25 µg·mL-1; for inhibition at 50 µg/mL: c = 50 µg·mL-1; for inhibition at 100 µg/mL: c = 100 µg·mL-1
Description: (§1) The resazurine test was used to evaluate this activity.
(§2) The cell inoculum was made in Mueller–Hinton broth (10 mL). Colonies of cells were inoculated from the solid medium that was cultivated for 24 h under optimum conditions. A part of the inoculum was diluted to get suspension with an optical density 0.6 to 0.9 McF. An aliquot amount (1 mL) was taken and diluted with additional volume of the medium (19 mL). The stored solutions of the tested compounds were made at a concentration c = 200 µg.mL^−1. The stored suspensions of the cells, MHB medium, solutions of the antibiotics specific for the given bacteria (vancomycin for S. aureus and E. faecalis, kanamycin for E. coli and P. aeruginosa, and tetracycline for B. cereus), and the solutions of the compounds were pipetted into the microtitration plates. Subsequently, a concentration sequence of the tested compounds was made (c = 100, 50, and 25 µg.mL^−1). The content of the microtitration plates was cultivated for 24 h under optimum conditions for the given bacteria. A solution of resazurine was made, based on a dilution of its stored solution (c = 0.15 mg.mL^−1; 2 mL) into the MHB medium (18 mL). Then, it was pipetted into the microtitration plates that were cultivated for an additional 1 h. Finally, fluorescence measurement (excitation at 560 nm, emission at 590 nm) was made, and the inhibition of the bacterium was determined.
(§3) 2. Antimicrobial screening tests
(§4) Antimicrobial activity of the target molecular ribbons 8a, 12a, 8b, 12b, 4c, 6c, 6d and 8d, and […]
(§5) aeruginosa, Staphylococcus aureus and Enterococcus faecalis. The resazurine test was used to […]
(§6) ribbons which have been achieved in this investigation.
(§7) Table S1. Antimicrobial activity, inhibition of the microorganism [%]
(§8) Comp. Staphylococcus aureus Comp. Escherichia coli […]
(§9) µg·mL-1 µg·mL-1 µg·mL-1 µg·mL-1 µg·mL-1 µg·mL-1
(§10) Comp. Bacillus cereus Comp. Pseudomonas aeruginosa

Enterococcus faecalis = experiment: Antimicrobial screening, resazurine test; type: cell-based; details: Enterococcus faecalis, E. faecalis, read-out: Inhibition of the microorganism; for inhibition at 25 µg/mL: c = 25 µg·mL-1; for inhibition at 50 µg/mL: c = 50 µg·mL-1; for inhibition at 100 µg/mL: c = 100 µg·mL-1
Description: as §1, §2, §3, §4, §5, §6, §7, §8, §9, §10

Escherichia coli = experiment: Antimicrobial screening, resazurine test; type: cell-based; details: E. coli; for inhibition at 25 µg/mL / inhibition at 50 µg/mL / inhibition at 100 µg/mL: Escherichia coli, read-out: Inhibition of the microorganism; for inhibition at 50 µg/mL: c = 50 µg·mL-1; for inhibition at 100 µg/mL: c = 100 µg·mL-1
Description: as §1, §2, §3, §4, §5, §6, §7, §8, §9, §10

Pseudomonas aeruginosa = experiment: Antimicrobial screening, resazurine test; type: cell-based; details: P. aeruginosa; for inhibition at 25 µg/mL: c = 25 µg·mL-1, read-out: Inhibition of the microorganism; for inhibition at 50 µg/mL: c = 50 µg·mL-1, read-out: Inhibition of the microorganism; for inhibition at 100 µg/mL: c = 100 µg·mL-1, read-out: Inhibition of the microorganism
Description: as §1, §2, §3, §4, §5, §6, §7, §8, §9, §10

Staphylococcus aureus = experiment: Antimicrobial screening, resazurine test; type: cell-based; details: S. aureus; for inhibition at 25 µg/mL / inhibition at 50 µg/mL / inhibition at 100 µg/mL: Staphylococcus aureus, read-out: Inhibition of the microorganism; for inhibition at 50 µg/mL: c = 50 µg·mL-1; for inhibition at 100 µg/mL: c = 100 µg·mL-1
Description: as §1, §2, §3, §4, §5, §6, §7, §8, §9, §10

[1] = Ability to form supramolecular gel; type: physicochemical; details: 1% w/v in solvent, ultrasound 30 min, heated to boiling, cooled to r.t. 24 h
Description: The solutions of the studied compounds 8a, 12a, 8b, 12b, 4c, 6c, 6d, and 8d (1%, w/v) in the appropriate solvent were mixed with ultrasound for 30 min, then heated to the boiling points of the used solvents, and then allowed to cool down to the r.t. for 24 h. An example of the resulting gels that were produced from 8a, 4c, 6c, and 6d is shown in the Supplementary Material, Figure S1.

[2] = Cytotoxicity screening test; type: cell-based; details: human
Description: (§11) Description of the experimental procedure used in the cytotoxicity screening test was already published. The following cancer cell lines were used in the investigation: T-lymphoblastic leukemia, CEM; breast carcinoma, MCF7; cervical carcinoma, HeLa; and malignant melanoma, G-361. Human foreskin fibroblasts, BJ, were used as reference cells. All of the above cell lines were obtained from the American Type Culture Collection (Manassas, VA, USA). African green monkey kidney Vero cells were obtained from the European Collection of Cell Cultures (Salisbury, UK) and human T-cell leukemia MT-4 cells were obtained through the NIH AIDS Reagent Program, Division of AIDS, NIAID, NIH, from Dr. Douglas Richman. All cells, but MT-4 cells, were cultured in DMEM (Dulbecco’s Modified Eagle Medium, Sigma, St. Louis, MO, USA). MT-4 cells were maintained in RPMI1640 medium. Media used were supplemented with 10% fetal bovine serum, 2 mM L-glutamine, and 1% penicillin–streptomycin (all Sigma, St. Louis, MO, USA). The cell lines were maintained under standard cell culture conditions at 37 °C and 5% CO2 in a humid environment. Cells were subcultured twice or three times a week using the standard trypsinization procedure.

[3] = Cytotoxicity screening test, reference cells; type: cell-based; details: BJ foreskin fibroblasts; BJ human fibroblasts
Description: as §11

[4] = Self-assembly by UV-VIS spectrometry in methanol/water mixtures; type: physicochemical; details: 0-140 h
Description: The self-assembly of the selected compounds 8a, 12a, 8b, 12b, 4c, 6c, 6d, and 8d was measured using UV absorption in methanol/water mixtures with a constant concentration of the studied compound for 7 days in one-hour intervals on the first day, and in 24 h intervals all following days. The stock solutions of the studied compounds were prepared at a concentration of 1 mg·mL^−1 in water. Then, a series of methanol/water mixtures were prepared starting from a methanol/water ratio 100/0 down to 0/100 in 20% steps. The stock solutions of the studied compounds (0.15 mL) were added separately to each vial containing methanol/water mixtures (3 mL), and the UV spectra were recorded in the wavelength range of 200–400 nm. […] For the compounds 8a, 12a, 12b and 6d, the details are presented in the Supplementary Material; see Figure S2.
Supramolecular self-assembly was studied on the basis of the UV-VIS spectra of the compounds in several methanol/water mixtures stepwise during the time interval 0-140 h. Here we show compounds 8a, 12a, 12b and 6d as examples, with which the irregularities in the UV-VIS spectra were either well pronounced (8a and 12a; Figure S2), or no substantial irregularity was detected (12b and 6d).
Figure S2. UV-VIS spectra of 8a (top) and 12a (bottom) measured in the interval 0-140 h.
During that time interval a new maximum appeared at 300 nm wavelength, and the shape of the curves is different than in any of the other intervals of measurement. […]

[5] = test system: HIV-1 (laboratory strain NL4-3); experiment: microbe, parasite or virus in culture; type: cell-based
Description: The cell lines were maintained under standard cell culture conditions at 37 °C and 5% CO2 in a humid environment. Cells were subcultured twice or three times a week using the standard trypsinization procedure.

SMILES	inhibition at 25 µg/mL (Bacillus cereus)	inhibition at 50 µg/mL (Bacillus cereus)	inhibition at 100 µg/mL (Bacillus cereus)	inhibition at 25 µg/mL (Enterococcus faecalis)	inhibition at 50 µg/mL (Enterococcus faecalis)	inhibition at 100 µg/mL (Enterococcus faecalis)	inhibition at 25 µg/mL (Escherichia coli; c = 25 µg·mL-1)	inhibition at 50 µg/mL (Escherichia coli)	inhibition at 100 µg/mL (Escherichia coli)	inhibition at 25 µg/mL (Pseudomonas aeruginosa)	inhibition at 50 µg/mL (Pseudomonas aeruginosa)	inhibition at 100 µg/mL (Pseudomonas aeruginosa)	inhibition at 25 µg/mL (Staphylococcus aureus; c = 25 µg·mL-1)	inhibition at 50 µg/mL (Staphylococcus aureus)	inhibition at 100 µg/mL (Staphylococcus aureus)	Gel formation [1]	Irregularity in UV-VIS spectra (self-assembly) [4]	other results
CC1(C)C=C2[C@H]3CC[C@@H]4[C@@]5(C)CCC(=O)C(C)(C)[C@@H]5CC[C@@]4(C)[C@]3(C)CC[C@@]2(C(=O)NCCOCCOCCOCCn2cc(CO[C@H]3CC[C@]4(C)[C@H]5CC=C6C7CC(C)(C)CC[C@]7(C(=O)O)CC[C@@]6(C)[C@]5(C)CC[C@H]4C3(C)C)nn2)CC1 (some centres unmarked) [6c]	7 ± 1%	19 ± 2.9%	13 ± 2%	0 to 1%	25 ± 3.8%	36 ± 5.4%	10 ± 1.5%	18 ± 2.7%	30 ± 4.5%	12 ± 1.8%	69 ± 10.4%	60 ± 9%	13 ± 2%	51 ± 7.7%	27 ± 4%	produced a gel in glycerol		
CC1(C)C=C2C3CC[C@@H]4[C@@]5(C)CC[C@H](OCc6cn(CCOCCOCCOCCNC(=O)[C@]78CCC(C)(C)C=C7[C@H]7CC[C@@H]9[C@@]%10(C)CCC(=O)C(C)(C)[C@@H]%10CC[C@@]9(C)[C@]7(C)CC8)nn6)C(C)(C)[C@@H]5CC[C@@]4(C)[C@]3(C)CC[C@@]2(C(=O)O)CC1 (some centres unmarked) [6d]	1 ± 0.2%	0 to 1%	3 ± 0.5%	2 ± 0.3%	14 ± 2.1%	28 ± 4.2%	9 ± 1.4%	13 ± 2%	0 to 1%	0 to 1%	0 to 1%	0 to 1%	25 ± 3.8%	31 ± 4.7%	0 to 1%	produced a gel in glycerol	No substantial irregularity was detected	IC50 ([2]; CEM T-lymphoblastic leukemia cells): > 50 µM; IC50 ([2]; G-361 malignant melanoma cells): 20 ± 0.6 µM; IC50 ([2]; HeLa cervical carcinoma cells): > 50 µM; IC50 ([2]; MCF7 breast carcinoma cells): > 50 µM; IC50 [3]: > 50 µM
CC1(C)CC[C@]2(C(=O)O)CC[C@]3(C)C(=CC[C@@H]4[C@@]5(C)CC[C@H](OCc6cn(CCOCCOCCOCCNC(=O)[C@]78CCC(C)(C)CC7C7=CC[C@@H]9[C@@]%10(C)CC[C@H](O)C(C)(C)[C@@H]%10CC[C@@]9(C)[C@]7(C)CC8)nn6)C(C)(C)[C@@H]5CC[C@]43C)C2C1 (some centres unmarked) [8a]	0 to 1%	0 to 1%	0 to 1%	17 ± 2.6%	28 ± 4.2%	32 ± 4.8%	> 50%	24 ± 3.6%	0 to 1%	21 ± 3.2%	17 ± 2.6%	14 ± 2.1%	> 50%	55 ± 8.3%	68 ± 10.2%	produced a gel in ethylene glycol	Irregularity was detected	Inhibition of the microorganism (Escherichia coli; c = 25 µg·mL-1): 51 ± 7.7 ^e %; Inhibition of the microorganism (Staphylococcus aureus; c = 25 µg·mL-1): 52 ± 7.8 ^e %; EC50 ([5]; Human immunodeficiency virus 1, NL43, MT4, HIV-1 NL4-3 in MT-4 cells, read-out: EC50 ± SE against HIV-1): 50.6 ± 7.8 µM
CC(C)OC(=O)[C@H](C)N[P@](=O)(CO[C@H](C)Cn1cnc2c(N)ncnc21)Oc1ccccc1 [tenofovir alafenamide, Tenofovir alafenamide, reference compound]																		EC50 ([5]; Human immunodeficiency virus 1, NL43, MT4, read-out: EC50 ± SE against HIV-1): 0.0097 ± 0.0023 µM
